Experiments:
[1] = test system: gastric reflux (heartburn); experiment: Example 9: patient with stress-related gastric reflux takes L-lysine confection; assay type: in vivo, human; settings: for effect of the patient's earlier treatments on gastric reflux / heartburn: same patient, Nexium 40 mg twice a day
[2] = test system: small bowel ulcers; settings: rats, cited from earlier work; for ulcer healing: glutamine given in a guar gum
[3] = test system: aspirin induced gastric lesions; experiment: Prevention of aspirin induced gastric lesions (U.S. Pat. No. 3,988,466, Table 1); assay type: in vivo; settings: aspirin induced gastric lesions (Table 1)
Procedure: (§1) U.S. Pat. No. 3,988,466 reports that amino acids, particularly, L-glutamine are effective for the prevention or treatment of certain experimental ulcers, induced artificially by stress or pylorus ligation, or chemically by histamine, reserpine, cortisone, or inflammatory agents when given simultaneously. Further, such prevention only occurred when the concomitant dosage of the amino acid, L-glutamine, present was 2-5 g for a dose of aspirin of 0.3-1.0 g or for 25-50 mg of indomethacin, the required dose of L-glutamine was 2 g. […] Glutamine was ineffective in prevention of indomethacin induced gastric lesions at a dose of 15.6 mg/kg (Table 2) which is equivalent to 1.1 g for an human adult (70 kg weight). No use or indication for relief of gastric distress before or after lesion formation was observed, nor could it have been in the animal model used. No use or indication for relief of gastric lesions after lesion formation was disclosed. […] Of the 24 amino acids tried at the pharmaceutically unacceptable level of 750 mg/kg (calculated to be 52.5 g of the amino acid for a 70 kg human dose), all but DL-tryptophan, L-aspartic acid, L-tyrosine, L-cysteine and L-cystine gave more than 50% inhibition of ulcers. The pH of the amino acids was not a factor in ulcer prevention, showing that “the effect of amino acids is different from that of antacids” (Col 6, lines 27-31)

[4] = test system: indomethacin induced gastric lesions; experiment: Prevention of indomethacin induced gastric lesions (U.S. Pat. No. 3,988,466, Table 2); assay type: in vivo; settings: indomethacin induced gastric lesions (Table 2)
Procedure: as §1

[5] = test system: aspirin induced gastric lesions; settings: cited from earlier work
[6] = test system: indomethacin induced gastric lesions; settings: cited from earlier work

COc1ccc2nc([S@@+]([O-])Cc3ncc(C)c(OC)c3C)[nH]c2c1 [Nexium, esomeprazole, reference compound]
effect of the patient's earlier treatments on gastric reflux / heartburn [1]: continued heartburn

O=C([O-])[O-].[Ca+2] [calcium carbonate antacids, calcium carbonate, reference compound]
effect of the patient's earlier treatments on gastric reflux / heartburn [1]: ineffective

N=C(N)NCCC[C@H](N)C(=O)O [L-arginine]
decrease in ulcer number ([2]; L-arginine together with yeast RNA (antagonistic)): 34% | ulcer healing [2]: somewhat effective

NCCCC[C@H](N)C(=O)O [L-lysine]
time to complete cessation of all symptoms ([1]; 1 gram dose as a carrageenan confection): one | relief of heartburn ([1]; 1 gram dose as a carrageenan confection, patient with gastric reflux due to stress): immediate relief

NC(=O)CC[C@H](N)C(=O)O [Glutamine, L-glutamine]
minimum effective dose calculated for a 70 kg human [3]: 8.75 g | minimum effective dose calculated for a 70 kg human [4]: 2.2 g | minimum effective dose ([5]; aspirin induced gastric lesions (Table 1)): 125 mg/kg | prevention of aspirin induced gastric lesions ([5]; dose of 62.5 mg/kg): completely ineffective | prevention of indomethacin induced gastric lesions ([6]; dose of 15.6 mg/kg): ineffective | minimum effective dose ([6]; indomethacin induced gastric lesions (Table 2)): 31.3 mg/kg | ulcer healing [2]: no effect
